Earlier results as cited in US12636282B1 (priority 2020, dated 2026).
Read-outs that look alike come from different tables or passages of the source.

What was measured:
influenza = conditions: NAC 600 mg twice a day for 6 months; 79% with placebo
[1] = system: lethal influenza infections; conditions: mice, lethal influenza infection
Coxackievirus B = conditions: in vivo; through suppressing viral replication and inflammatory responses
COVID-19 = conditions: early uncontrolled study

Compound: CCN(CCO)CCCC(C)Nc1ccnc2cc(Cl)ccc12 (stereo not drawn) [HCQ, hydroxychloroquine]
- Retinal toxicity, share of patients (after 6 years of HCQ use): 1.8%
- Retinal toxicity, share of patients (after 11 years of HCQ use): 3.3%
- Retinal toxicity, share of patients (after 16 years of HCQ use): 11.5%

Compound: CC(=O)N[C@@H](CS)C(=O)O [NAC, N-acetyl cysteine]
- virus-infected subjects developing flu symptoms (influenza): 25%
- Survival [1]: 20%
- Coxackievirus B-induced myocarditis (Coxackievirus B): effectively alleviates

Compound: CCOC(=O)C1=C[C@@H](OC(CC)CC)[C@H](NC(C)=O)[C@@H](N)C1 [oseltamivir]
- Survival [1]: 60%

Compound: Tocilizumab: interleukin 6 (IL-6) receptor antibody
- fever (COVID-19): rapidly reduction in fever
- oxygenation (COVID-19): improvement in oxygenation
